Test results from US8304422B2, “Compositions and methods for inhibition of the JAK pathway” (Rigel Pharmaceuticals, Inc., priority 2007, dated 2012).

What was measured:
[1] = tested on: Ramos B-Cell Line Stimulated with IL-4; test: Assay for Ramos B-Cell Line Stimulated with IL-4 (CD23 upregulation, FACS; Example 2); format: cell-based; details: human Ramos B cells, IL-4 50 units/mL for 20-24 hours, anti-CD23-PE
Description: One means of assaying for such inhibition is detection of the effect of the 2,4-pyrimidinediamine compounds on the upregulation of downstream gene products. In the Ramos/IL4 assay, B-cells are stimulated with the cytokine Interleukin-4 (IL-4) leading to the activation of the JAK/Stat pathway through phosphorylation of the JAK family kinases, JAK1 and JAK3, which in turn phosphorylate and activate the transcription factor Stat-6. […] To study the effect of inhibitors (e.g., the 2,4-substituted pyrimindinediamine compounds described herein) on the JAK1 and JAK3 kinases, human Ramos B cells are stimulated with human IL-4. 20 to 24 hours post stimulation, cells are stained for upregulation of CD23 and analyzed using flow cytometry (FACS). […] An exemplary assay of this type is described in greater detail in Example 2.
B-cells stimulated with cytokine Interleukin-4 (IL-4) activate the JAK/Stat pathway through phosphorylation of the JAK family kinases, JAK-1 and JAK-3, which in turn phosphorylate and activate the transcription factor Stat-6. […] To study the effect of inhibitors on the JAK family kinases, human Ramos B cells are stimulated with human IL-4.
The Ramos B-cell line was acquired from ATCC (ATCC Catalog No. CRL-1596). The cells were cultured in RPMI 1640 (Cellgro, MediaTech, Inc., Herndon, Va., Cat No. 10-040-CM) with 10% fetal bovine serum (FBS), heat inactivated (JRH Biosciences, Inc, Lenexa, Kans., Cat No. 12106-500M) according to ATCC propagation protocol. Cells were maintained at a density of 3.5×10^5. The day before the experiment, Ramos B-cells were diluted to 3.5×10^5 cells/mL to ensure that they were in a logarithmic growth phase.
Cells were spun down and suspended in RPMI with 5% serum. 5×10^4 cells were used per point in a 96-well tissue culture plate. Cells were pre-incubated with compound or DMSO (Sigma-Aldrich, St. Louis, Mo., Cat No. D2650) vehicle control for 1 hour in a 37° C. incubator.
Cells were then stimulated with IL-4 (Peprotech Inc., Rocky Hill, N.J., Cat No. 200-04) for a final concentration of 50 units/mL for 20-24 hours. Cells were then spun down and stained with anti-CD23-PE (BD Pharmingen, San Diego, Calif., Cat No. 555711) and analyzed by FACS. Detection was performed using a BD LSR I System Flow Cytometer, purchased from Becton Dickinson Biosciences of San Jose, Calif.

BaF3 V617F cells; UKE-1 = test: Proliferation Assay (Cell Titer-Glo; Example 7); format: cell-based; details: proliferation 72 hours, inhibit JAK2 activity, cell line (BaF3 V617F or UKE-1) not stated
How it was run: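 Proliferation IC50s reflect 72 h compound exposure at 37 °C, read by Cell Titer-Glo luminescence. Compound was serially diluted 3-fold from a 5 mM DMSO stock and added as a 2× solution; BaF3 V617F cells were grown in RPMI/10% FBS, UKE-1 in Iscove's DMEM with FBS, equine serum and hydrocortisone.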

Row | IC50 [1] [nM] | IC50 (BaF3 V617F cells; UKE-1) [nM] | Compound
1 | 110 | 478 | Cc1cc(C)cc(Nc2ncc(C)c(Nc3ccc4c(c3)CCN(S(=O)(=O)C3CC3)C4)n2)c1 [VIII-7, N4-[(N-cyclopropylsulfonyl)-1,2,3,4-tetrahydroisoquinolin-6-yl]-N2-(3,5-dimethyl)phenyl-5-methyl-2,4-pyrimidinediamine]
2 | 1920 | 56100 | O=S(=O)(NCc1ccc(Nc2nc(NC3CCCC3)ncc2F)cc1)C1CC1 [VIII-2, N2-cyclopentyl-N4-(4-cyclopropylsulfonylaminomethyl)phenyl-5-fluoro-2,4-pyrimidinediamine]
3 | 78.6 | 12500 | N#Cc1ccc(Nc2ncc(F)c(Nc3ccc(CNS(=O)(=O)C4CC4)cc3)n2)cc1 [II-29, N2-(4-cyano)phenyl-N4-(4-cyclopropylsulfonylaminomethyl)phenyl-5-fluoro-2,4-pyrimidinediamine]
4 | 38.1 | 599 | Cc1cc(C)cc(Nc2ncc(Cl)c(Nc3ccc(CNS(=O)(=O)C4CC4)cc3)n2)c1 [II-36, 5-chloro-N4-(4-cyclopropylsulfonylaminomethyl)phenyl-N2-(3,5-dimethyl)phenyl-2,4-pyrimidinediamine]
5 | 87.1 | 2950 | Cc1cnc(Nc2ccc(C(N)=O)cc2)nc1Nc1ccc(CNS(=O)(=O)C2CC2)c(Cl)c1 [II-17, N2-(4-aminocarbonyl)phenyl-N4-(3-chloro-4-cyclopropylsulfonylaminomethyl)phenyl-5-methyl-2,4-pyrimidinediamine]
6 | 88 | 3400 | Cc1cc(C)cc(Nc2ncc(F)c(Nc3ccc(CNS(=O)(=O)C4CC4)cc3)n2)c1 [II-4, N4-(4-cyclopropylsulfonylaminomethyl)phenyl-N2-(3,5-dimethyl)phenyl-5-fluoro-2,4-pyrimidinediamine]
7 | 911 | 6180 | O=C(NCCN1CCOCC1)n1ccc2ccc(Nc3ncc(F)c(Nc4ccc(CNS(=O)(=O)C5CC5)cc4)n3)cc21 [III-2, N4-[4-(Cyclopropylsulfonylaminomethyl)phenyl]-5-fluoro-N2-[1-(2-(N-morpholino)ethylaminocarbonyl)indol-6-yl]-2,4-pyrimidinediamine]
8 | 82.6 | 408 | COc1cc(Nc2ncc(C)c(Nc3ccc(CNS(=O)(=O)C4CC4)cc3)n2)cc(OC)c1OC [II-9, N4-(4-cyclopropylsulfonylaminomethyl)phenyl-5-methyl-N2-(3,4,5-trimethoxy)phenyl-2,4-pyrimidinediamine]
9 | 254 | 2800 | Cc1cc(C)cc(Nc2ncc(C)c(Nc3cccc(CNS(=O)(=O)C4CC4)c3)n2)c1 [II-11, N4-(3-cyclopropylsulfonylaminomethyl)phenyl-N2-(3,5-dimethyl)phenyl-5-methyl-2,4-pyrimidinediamine]
10 | 233 | 10900 | Cc1cnc(Nc2cccc(C#N)c2)nc1Nc1ccc(CN(C)S(=O)(=O)C2CC2)cc1 [II-28, N2-(3-cyano)phenyl-N4-[4-(N-cyclopropylsulfonyl-N-methyl)aminomethyl]phenyl-5-methyl-2,4-pyrimidinediamine]
11 | 57.8 | 708 | COc1ccc(Nc2ncc(C)c(Nc3ccc(CNS(=O)(=O)C4CC4)cc3)n2)cc1Cl [II-10, N2-(3-chloro-4-methoxy)phenyl-N4-(4-cyclopropylsulfonylaminomethyl)phenyl-5-methyl-2,4-pyrimidinediamine]
12 | 106 | 2210 | Cc1cnc(Nc2ccc(C(N)=O)cc2)nc1Nc1ccc(CN(C)S(=O)(=O)C2CC2)cc1 [II-19, N2-(4-aminocarbonyl)phenyl-N4-[4-(N-cyclopropylsulfonyl-N-methyl)aminomethyl]phenyl-5-methyl-2,4-pyrimidinediamine]
13 | 110 | 479 | Cc1cnc(Nc2ccc(C(N)=O)cc2)nc1Nc1cccc(CN(C)S(=O)(=O)C2CC2)c1 [II-21, N2-(4-aminocarbonyl)phenyl-N4-[3-(N-cyclopropylsulfonyl-N-methyl)aminomethyl]phenyl-5-methyl-2,4-pyrimidinediamine]
14 | 364 | 6060 | N#Cc1ccc(Nc2ncc(F)c(Nc3ccc(CNS(=O)(=O)C4CC4)cc3)n2)cc1Cl [II-5, N2-(3-chloro-4-cyano)phenyl-N4-(4-cyclopropylsulfonylaminomethyl)phenyl-5-fluoro-2,4-pyrimidinediamine]
15 | 24.7 | 63.7 | COc1c(C)cc(Nc2ncc(C)c(Nc3ccc(CNS(=O)(=O)C4CC4)cc3)n2)cc1C [II-42, N4-(4-cyclopropylsulfonylaminomethyl)phenyl-N2-(3,5-dimethyl-4-methoxy)phenyl-5-methyl-2,4-pyrimidinediamine]
16 | 126 | 359 | COc1cc(Nc2ncc(C)c(Nc3cccc(CNS(=O)(=O)C4CC4)c3)n2)cc(OC)c1OC [II-13, N4-(3-cyclopropylsulfonylaminomethyl)phenyl-5-methyl-N2-(3,4,5-trimethoxy)phenyl-2,4-pyrimidinediamine]
17 | 152 | 2190 | COc1ccc(Nc2ncc(C)c(Nc3cccc(CNS(=O)(=O)C4CC4)c3)n2)cc1Cl [II-14, N2-(3-chloro-4-methoxy)phenyl-N4-(3-cyclopropylsulfonylaminomethyl)phenyl-5-methyl-2,4-pyrimidinediamine]
18 | 78.3 | 488 | COc1c(C)cc(Nc2ncc(C)c(Nc3cccc(CNS(=O)(=O)C4CC4)c3)n2)cc1C [II-44, N4-(3-cyclopropylsulfonylaminomethyl)phenyl-N2-(3,5-dimethyl-4-methoxy)phenyl-5-methyl-2,4-pyrimidinediamine]
19 | 36.4 | 138 | CCN1CCN(c2ccc(Nc3ncc(F)c(Nc4ccc(CNS(=O)(=O)C5CC5)cc4)n3)cc2C)CC1 [II-6, N4-(4-cyclopropylsulfonylaminomethyl)phenyl-N2-[4-(4-ethylpiperazino)-3-methyl]phenyl-5-fluoro-2,4-pyrimidinediamine]
20 | 48.9 | 912 | COc1ccc(Nc2ncc(Cl)c(Nc3ccc(CNS(=O)(=O)C4CC4)cc3)n2)cc1Cl [II-35, 5-chloro-N2-(3-chloro-4-methoxy)phenyl-N4-(4-cyclopropylsulfonylaminomethyl)phenyl-2,4-pyrimidinediamine]
21 | 178 | 6310 | Cc1nc2cc(Nc3ncc(F)c(Nc4ccc(CNS(=O)(=O)C5CC5)cc4)n3)ccc2[nH]1 [III-5, N4-(4-cyclopropylsulfonylaminomethyl)phenyl-5-fluoro-N2-(2-methylbenzoimidazol-5-yl)-2,4-pyrimidinediamine]
22 | 18.3 | 875 | NC(=O)c1ccc(Nc2ncc(Cl)c(Nc3ccc(CNS(=O)(=O)C4CC4)cc3)n2)cc1 [II-37, N2-(4-aminocarbonyl)phenyl-5-chloro-N4-(4-cyclopropylsulfonylaminomethyl)phenyl-2,4-pyrimidinediamine]
23 | 37.8 | 123 | COc1c(C)cc(Nc2ncc(F)c(Nc3ccc(CNS(=O)(=O)C4CC4)cc3)n2)cc1C [II-41, N4-(4-cyclopropylsulfonylaminomethyl)phenyl-N2-(3,5-dimethyl-4-methoxy)phenyl-5-fluoro-2,4-pyrimidinediamine]
24 | 1220 | 807 | Cc1cnc(Nc2ccc(C3CCN(C)CC3)cc2)nc1Nc1ccc2c(c1)C(NS(C)(=O)=O)CC2 (racemic) [V-2, (+/−)-5-Methyl-N2-[4-(1-methyl-4-piperidinyl)pheny]-N4-[1-(methylsulfonyl)aminoindan-6-yl]-2,4-pyrimidinediamine]
25 | 94.6 | 1130 | N#Cc1cccc(Nc2ncc(F)c(Nc3ccc(CNS(=O)(=O)C4CC4)cc3)n2)c1 [II-30, N2-(3-cyano)phenyl-N4-(4-cyclopropylsulfonylaminomethyl)phenyl-5-fluoro-2,4-pyrimidinediamine]
26 | 107 | 6140 | Cc1cnc(Nc2ccc(C(N)=O)cc2)nc1Nc1cccc(CNS(=O)(=O)C2CC2)c1 [II-23, N2-(4-aminocarbonyl)phenyl-N4-(3-cyclopropylsulfonylaminomethyl)phenyl-5-methyl-2,4-pyrimidinediamine]
